# Source: patent US11173103B1, “Retinoids and epidermal stimulants” (Owen Biosciences, Inc., priority 2017, dated 2021)
# Assays:
# [1] = system: TGF alpha; assay: DNA microarray assay, expression of proliferative/growth-factor related genes; type: cell-based; settings: DMSO delivered retinol at 5 ppm; retinyl linoleate and lysophospholipid concentrate at a ratio of 1:0.4
# [2] = system: mature murine skin; assay: Histology of punch biopsies of treated murine skin (epidermal thickening, proliferation, keratinocyte differentiation); type: in vivo, mice; settings: for basal cell turn over / formation of normally-functioning supra basal granular keratinocytes: applied to the skin of mice, all trans retinoic acid 0.1%, all trans retinol 1.0%
# Text: Photomicrographs of murine tissue samples treated according to methods of the present invention are presented the figures. Differing amounts of inter-laminar keratinocyte differentiation were observed. In some cases, there is intra-laminar disruption, in which stratum corneum (SC) and granular layer (GL) are separated, indicating little granular keratinocyte formation and/or suppression of one or both of granular keratinocyte extracellular desmosomal proteins and/or reduced production of laminar granules (proteases, lipids). This was not considered an artifact of the micro-tome blade.
# More particularly, histological observations, including degree of “keratinocyte differentiation” are described by reference to photomicrographs of retired breeder mice obtained from Charles River Laboratories, Inc. (Wilmington, Mass.). An area of approximately one square inch was shaved. Test compositions (e.g., control=carrier vehicle with ingredient known to be irritating; test=same carrier and known irritant from control+phospholipid) were administered in accordance with methods of the inventions. Punch biopsies of full thickness skin and subcutaneous fat were taken as follows: skin was swabbed with an antiseptic and injected with a local anaesthetic; an incision was made, and a tissue specimen was removed and preserved in 10% neutral buffered formalin at a volume of approximately ten times that of the tissue). Excision sites were sutured. The preserved tissues samples were sent to Louisiana State University, School of Veterinary Medicine for processing and analysis. More particularly, tissue was processed in graded alcohol [70% (v/v) ethanol, 90% (v/v) ethanol, absolute ethanol] followed by graded xylene [[…], absolute xylene]. Next the processed tissue was placed in blocks/molds filled with paraffin wax liquid, in an orientation with the epidermis on top, with ice on top to hold the tissue in place. Wax blocks were cooled in ice and sectioned at a thickness of 5-15 μm using a microtome with disposable blade (Leica Microtome Model RM2255). Microtomed sections were placed on adhesive slides, incubated at 37° C. for 24 hours (i.e., on slide racks), and then stored in slide containers at room temperature until H&E staining is performed to visualize histological microstructures. All histological samples were micro photographed at 400× under normal light with standard digital equipment. These photos were transferred to PHOTOSHOP® computer imaging software from Adobe Systems Pvt. Ltd., in which measurements of epidermal thickness, SC thickness, granulation, layering were determined.
# [3] = system: FGF; assay: DNA microarray assay, expression of proliferative/growth-factor related genes; type: cell-based; settings: DMSO delivered retinol at 5 ppm; retinyl linoleate and lysophospholipid concentrate at a ratio of 1:0.4
# [4] = system: CSF2; assay: as above; type: cell-based; settings: DMSO delivered retinol at 5 ppm; retinyl linoleate and lysophospholipid concentrate at a ratio of 1:0.4
# [5] = system: TGF beta 1; assay: as above; type: cell-based; settings: DMSO delivered retinol at 5 ppm; retinyl linoleate and lysophospholipid concentrate at a ratio of 1:0.4
# [6] = system: HBEGF; assay: as above; type: cell-based; settings: DMSO delivered retinol at 5 ppm; retinyl linoleate and lysophospholipid concentrate at a ratio of 1:0.4
# [7] = bioemulsion applied once daily over 4 consecutive days (retinyl phosphate 1%)
# [8] = FIG. 7, bioemulsion with 1% retinyl linoleate
# [9] = 1% in a bioemulsion applied once daily over 2 consecutive days
# [10] = 1% in a bioemulsion applied once daily over three consecutive days
compound,measurement,setting,value
"CC1=C(/C=C/C(C)=C/C=C/C(C)=C/CO)C(C)(C)CCC1 [DMSO Delivered Retinol, Retinol]",TGF alpha level of expression (change),[1],+200%
same,basal cell turn over,[2],stimulates
same,formation of normally-functioning supra basal granular keratinocytes,[2],inhibits or suppresses
same,FGF level of expression (change),[3],−50%
same,CSF2 level of expression (change),[4],−25%
same,TGF beta 1 level of expression (change),[5],−50%
same,HBEGF level of expression (change),[6],−50%
"CC1=C(/C=C/C(C)=C/C=C/C(C)=C/C(=O)O)C(C)(C)CCC1 [all trans retinoic acid, Retinoic acid]",basal cell turn over,[2],stimulates
same,formation of normally-functioning supra basal granular keratinocytes,[2],inhibits or suppresses
CC(C=CC1=C(C)CCCC1(C)C)=CC=CC(C)=CCOC(=O)CCC(=O)OCC=C(C)C=CC=C(C)C=CC1=C(C)CCCC1(C)C [diretinyl succinate],keratinocyte differentiation,[2]; [7],de minimis
same,proliferation,[2]; [7],De minimis
"CCCCC/C=C\C/C=C\CCCCCCCC(=O)OC/C=C(C)/C=C/C=C(C)/C=C/C1=C(C)CCCC1(C)C [retinyl linoleate, Retinyl linoleate]",SC density,[2]; [8],Increased
same,differentiation,[2]; [8],without significant differentiation
same,proliferation,[2]; [8],Increased
CC1=C(/C=C/C(C)=C\C=C\C(C)=C\COP(=O)(O)O)C(C)(C)CCC1 [retinyl phosphate],keratinocyte differentiation,[2]; [7],de minimis
same,proliferation,[2]; [7],De minimis
Glyceryl diretinoate,differentiation,[2]; [9],good
same,proliferation,[2]; [9],good
Monoglyceryl retinoate [glyceryl mono retinoate],differentiation,[2]; [9],excellent
same,proliferation,[2]; [9],excellent
acetyl-n-phenylalanine retinoate,differentiation,[2]; [10],good
same,proliferation,[2]; [10],good
